Results on two compounds are retold here after paper doi:10.1101/2025.10.22.684062 (bioRxiv, 2025).

Peptide text beside a SMILES is read from it.

Data set [1] in a line: In vivo plasma pharmacokinetics. The conditions noted are these: ip, male C57BL/6 mouse, 5mg/kg intraperitoneal, LC-MS/MS. How it is done:
Blood samples (100 μl) were obtained at 0, 0.25, 0.5, 1, 2, 4, 8, and 24 hours via tail vein bleeds.

A further data set relates to B16-F10 melanoma tumors. The experiment in a line: B16-F10 syngeneic mouse tumor model. The format is in vivo, C57BL/6 mice. Conditions: CST 10 mg/kg i.p. three times per week, tumor-bearing mice, n=9. The method, then:
Age-matched male and female C57BL/6 mice (7–9 weeks, n = 9) were subcutaneously injected with 5 × 10^4 B16-F10 cells in 100 μL PBS. […] Tumor dimensions were measured with calipers, and volume was calculated using the formula V = (length × width^2)/2. Mice were euthanized 22 days post-inoculation. All procedures were approved by the IACUC of UCSD and the VA San Diego Healthcare System and conformed to NIH guidelines.
Tumors were fixed, paraffin-embedded, and sectioned (5 μm). Hematoxylin and eosin staining was performed at the La Jolla Institute for Immunology. Immunohistochemistry was carried out using the Super Sensitive™ M Polymer-HRP Kit (Biogenex). After deparaffinization, antigen retrieval was performed using Histo VT (Nacalai) at 90°C for 20 min. Sections were incubated overnight at 4°C with anti–Ki-67 (Abcam) or anti-CST (gift from Angelo Corti) at 1:100 dilution. Detection was performed with DAB and counterstained with hematoxylin. Slides were dehydrated and mounted in DPX. […]
Apoptotic nuclei were detected in tumor sections using the CF®594 TUNEL Assay Kit (Biotium). […] Fluorescence images were obtained using a Keyence microscope.
Tumor lysates were prepared in RIPA buffer containing protease inhibitors (Thermo Fisher). […] HRP-conjugated secondary antibodies (Cell Signaling Technology) were used, and signals were detected by chemiluminescence. […]

In data set [2] the test system is Vemurafenib-sensitive A375 cell line. The experiment in a line: Cell viability assay, Vemurafenib-sensitive (parental) A375 cells. Format: cell-based. Conditions: Homo sapiens, A-375. How it is done:
(§1) Viability was determined using the CCK-8 reagent (APExBIO). Absorbance was measured at 450 nm using a Varioskan LUX reader.
(§2) Vemurafenib-resistant A375 cells were generated following established protocol. Parental cells were treated with 100 nM Vemurafenib for 2 weeks, followed by stepwise doubling of drug concentration every 2 weeks up to 3.2 μM. Surviving cells in maintenance culture containing 2 μM drug was used for downstream studies.

Data set [3] relates to Vemurafenib-resistant A375 cell line. The experiment in a line: Cell viability assay, Vemurafenib-resistant A375 cells. Format: cell-based, human. The method, then:
as §1, §2

On to `CSCC[C@H](NC(=O)[C@H](CO)NC(=O)[C@@H](N)CO)C(=O)N[C@@H](CCCCN)C(=O)N[C@@H](CC(C)C)C(=O)N[C@@H](CO)C(=O)N[C@@H](Cc1ccccc1)C(=O)N[C@@H](CCCNC(=N)N)C(=O)N[C@@H](C)C(=O)N[C@@H](CCCNC(=N)N)C(=O)N[C@@H](C)C(=O)N[C@@H](Cc1ccc(O)cc1)C(=O)NCC(=O)N[C@@H](Cc1ccccc1)C(=O)N[C@@H](CCCNC(=N)N)C(=O)NCC(=O)N1CCC[C@H]1C(=O)NCC(=O)N1CCC[C@H]1C(=O)N[C@@H](CCC(N)=O)C(=O)N[C@@H](CC(C)C)C(=O)O` [CST, Catestatin] (H-SSMKLSFRARAYGFRGPGPQL-OH), for which the half-life in data set [1] (read-out: t1/2 (half-life) (converted)) was 1.38 h. The Cmax in data set [1] (tail vein bleeds 0-24 hours, read-out: Cmax (maximum concentration)) turned out to be 148 ng/mL. Further, the “body weight and liver histology” value in the data set with B16-F10 melanoma tumors is reported as “No major changes in body weight or liver histology”.

The IC50 is the concentration at which inhibition is half-maximal. Regarding `CCCS(=O)(=O)Nc1ccc(F)c(C(=O)c2c[nH]c3ncc(-c4ccc(Cl)cc4)cc23)c1F` [Vemurafenib], the half-inhibitory concentration (IC50) in data set [2] was determined as 229 nM; in data set [3] (Homo sapiens, vemurafenib-resistant A-375, Vemurafenib-resistant A375 cells), 1430 nM. In data set [3] (resistant vs parental A375), the “fold increase of IC50, resistant versus parental A375 cells” value is greater than 6 fold.
